Residues, ends and D or L forms follow the SMILES beside them. *: point of attachment. Cbz = O=C(OCc1ccccc1)*; CH2F = FC*
Test system: A549 cells
Test: inhibition assay with caspase and autophagy inhibitors on cells co-treated with berberine and IR
Assay type: cell-based, human
Experimental: Berberine has been reported to induce cell death in several cancer cells via mitochondrial disruption (Lin J P, et al. World J Gastroenterol 2006; 12:21-28.). Therefore, mitochondrial membrane potential was next measured with JC-1. Mitochondria membrane potential (Δ Ψm), the lipophilic cationic probe fluorochrome JC-1 (Invitrogen) was used. […] After a treatment of radiation (6 Gy) for 24 h in the absence or presence of 1.0-10 μM berberine, cells were rinsed with DMEM, and JC-1 (5 μmol/L) was loaded. Determination of Δ Ψm was also carried out with a FACScan Flow Cytometer. […] It has been reported that depolarized mitochondria would move into autophagic vacuoles in response to appropriate stimulation; thus, mitochondria dysfunction may be a point of overlap between apoptotic and autophagocytic processes (Bras M, et al. Biochemistry (Mosc) 2005; 70:231-39). […] On the other hand, beclin-1 siRNA and 3-MA (autophagy inhibitor) blocked the cell death induced by 5.0 μM berberine combined with 6 Gy IR (p<0.001). As a consequence, berberine sensitized A549 cells to IR damage via inducing autophagic cell death.

SMILES | effect of inhibitor on cell death induced by berberine combined with IR (A549, 5.0 μM berberine combined with 6 Gy IR, p<0.001) | effect of inhibitor on cell viability of cells co-treated with berberine and IR (A549, berberine and IR co-treatment, p=0.15)
Cn1cnc(N)c2ncnc1-2 [3-MA, 3-methyladenine] | blocked | –
COC(=O)C[C@H](NC(=O)[C@H](C)NC(=O)[C@@H](NC(=O)OCc1ccccc1)C(C)C)C(=O)CF [z-VAD-fmk] (Cbz-Val-Ala-Asp(OMe)-CH2F) | – | did not significantly affect

From patent US20090076050A1, “SYNERGISTIC TUMOR-KILLING EFFECT OF RADIATION AND BERBERINE COMBINED TREATMENT IN LUNG CANCER” (CHUNG SHAN MEDICAL U., priority 2007, published 2009)
